Tests used:
human 5-HT1A receptor = target: T1, human 5-HT1A receptor (Homo sapiens, UniProt P08908); experiment: GPCR radioligand binding assay, [3H]-8-OH-DPAT displacement, HEK293 membranes; conditions: for %inh 5-HT1A average: average of exp_1 and exp_2; for %inh 5-HT1A corrected*: average, values below 0 and above 100% were set as 0 and 100; for %inh 5-HT1A exp_1: replicate exp_1; for %inh 5-HT1A exp_2: replicate exp_2; for 5-HT1A % Inhibition by plate position: 10 µM
T1 construct: expressed in transfected cells
T1 sequence (P08908 1-422): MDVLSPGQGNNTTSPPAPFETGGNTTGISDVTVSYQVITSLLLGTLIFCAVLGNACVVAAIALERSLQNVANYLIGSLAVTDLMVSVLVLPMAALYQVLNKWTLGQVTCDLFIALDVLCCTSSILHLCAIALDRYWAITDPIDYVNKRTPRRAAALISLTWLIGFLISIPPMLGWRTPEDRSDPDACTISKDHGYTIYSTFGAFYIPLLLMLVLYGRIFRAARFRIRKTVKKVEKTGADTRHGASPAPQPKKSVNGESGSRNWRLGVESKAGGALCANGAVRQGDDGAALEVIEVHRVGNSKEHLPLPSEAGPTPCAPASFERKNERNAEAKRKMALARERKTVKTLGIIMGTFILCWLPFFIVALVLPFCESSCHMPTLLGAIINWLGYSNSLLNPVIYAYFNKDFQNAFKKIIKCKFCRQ

human 5-HT6 receptor = target: T2, human 5-HT6 receptor (Homo sapiens, UniProt P50406); experiment: GPCR radioligand binding assay, [3H]-LSD displacement, HEK293 membranes; conditions: for 5-HT6 % Inhibition by plate position: 10 µM; for %inh 5-HT6 average: average of exp_1 and exp_2; for %inh 5-HT6 corrected*: average, values below 0 and above 100% were set as 0 and 100; for %inh 5-HT6 exp_1: replicate exp_1; for %inh 5-HT6 exp_2: replicate exp_2
T2 construct: expressed in transfected cells

human 5-HT7b receptor = target: T3, human 5-HT7b receptor (Homo sapiens, UniProt P34969); experiment: GPCR radioligand binding assay, [3H]-5-CT displacement, HEK293 membranes; conditions: for 5-HT7 % Inhibition by plate position: 10 µM; for %inh 5-HT7 average: average of exp_1 and exp_2; for %inh 5-HT7 exp_1: replicate exp_1; for %inh 5-HT7 exp_2: replicate exp_2
T3 construct: expressed in transfected cells
T3 sequence (P34969 1-432): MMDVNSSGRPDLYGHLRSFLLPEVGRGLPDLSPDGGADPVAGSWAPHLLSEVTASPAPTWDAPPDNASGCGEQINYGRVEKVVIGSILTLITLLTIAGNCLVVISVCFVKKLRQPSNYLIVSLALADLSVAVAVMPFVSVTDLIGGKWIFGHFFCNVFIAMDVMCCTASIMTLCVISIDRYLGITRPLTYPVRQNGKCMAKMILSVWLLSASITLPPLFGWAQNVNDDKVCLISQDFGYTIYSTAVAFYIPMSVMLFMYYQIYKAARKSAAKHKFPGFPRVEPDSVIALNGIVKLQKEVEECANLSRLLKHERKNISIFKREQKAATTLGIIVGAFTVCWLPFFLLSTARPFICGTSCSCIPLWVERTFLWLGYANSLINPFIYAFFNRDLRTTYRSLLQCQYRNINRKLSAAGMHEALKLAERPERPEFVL

T2 sequence (P50406 whole entry): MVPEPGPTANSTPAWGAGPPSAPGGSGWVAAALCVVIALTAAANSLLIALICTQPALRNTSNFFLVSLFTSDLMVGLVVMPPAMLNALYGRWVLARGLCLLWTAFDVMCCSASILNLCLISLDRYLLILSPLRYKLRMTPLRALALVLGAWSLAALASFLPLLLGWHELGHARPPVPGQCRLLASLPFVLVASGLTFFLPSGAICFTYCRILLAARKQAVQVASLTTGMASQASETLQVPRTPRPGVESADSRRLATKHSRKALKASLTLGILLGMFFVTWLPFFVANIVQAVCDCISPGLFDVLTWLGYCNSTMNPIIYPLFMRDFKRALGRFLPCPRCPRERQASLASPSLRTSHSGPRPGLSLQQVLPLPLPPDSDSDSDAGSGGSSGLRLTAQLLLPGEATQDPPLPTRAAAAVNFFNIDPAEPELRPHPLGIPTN

| SMILES | %inh 5-HT1A average (human 5-HT1A receptor) | %inh 5-HT1A corrected* (human 5-HT1A receptor) | %inh 5-HT1A exp_1 (human 5-HT1A receptor) | %inh 5-HT1A exp_2 (human 5-HT1A receptor) | 5-HT6 % Inhibition by plate position (human 5-HT6 receptor) | %inh 5-HT6 average (human 5-HT6 receptor) | %inh 5-HT6 corrected* (human 5-HT6 receptor) | %inh 5-HT6 exp_1 (human 5-HT6 receptor) | %inh 5-HT6 exp_2 (human 5-HT6 receptor) | 5-HT7 % Inhibition by plate position (human 5-HT7b receptor) | %inh 5-HT7 average (human 5-HT7b receptor) | %inh 5-HT7 exp_1 (human 5-HT7b receptor) | %inh 5-HT7 exp_2 (human 5-HT7b receptor) | 5-HT1A % Inhibition by plate position (human 5-HT1A receptor) |
| --- | --- | --- | --- | --- | --- | --- | --- | --- | --- | --- | --- | --- | --- | --- |
| Clc1ccc2nnnn2n1 [E6] | 3.55% | 3.55% | 3.18% | 4% | 35% | 35% | 35% | 38% | 31% | 0% | -13% | -5% | -20% | – |
| CC(CN)N1CCc2sccc2C1 (stereo not drawn) [F9] | 33% | 33% | 30% | 36% | 15% | 15% | 15% | 14% | 17% | 8% | – | 13% | 3.54% | – |
| O=C1CSC(Nc2ccc(F)cc2)=N1 [H10] | 12% | 12% | 10% | 15% | 36% | 36% | 36% | 37% | 35% | 0% | -3.55% | 3.25% | -10% | – |
| N#CC1CCS(=O)(=O)C1 (stereo not drawn) [F2] | -0.934% | – | 12% | -14% | 22% | 22% | 22% | 22% | 22% | 20% | – | 21% | 19% | 0% |
| NC(c1ccccc1)c1ccccc1 [C3] | -12% | – | -22% | -1.84% | 25% | 25% | 25% | 16% | 33% | 0% | -9% | -16% | -1% | 0% |
| COc1ccc(CN2CCNCC2)cc1F [D11] | -7% | – | 10% | -23% | 41% | 41% | 41% | 45% | 38% | 0% | -0.31% | -5% | 4.58% | 0% |
| Cn1nc(C(F)(F)F)cc1O [H6] | 21% | 21% | 21% | 21% | 0% | -24% | 0% | -16% | -31% | 9% | – | 4% | 14% | – |
| CC1C(=O)NC(=O)N1c1ccc(Cl)cc1 (stereo not drawn) [E3] | -4% | – | 5% | -13% | 43% | 43% | 43% | 41% | 44% | 17% | – | 19% | 14% | 0% |
| Brc1ccc(-c2ccon2)cc1 [A9] | 3.49% | 3.49% | 4% | 3% | 34% | 34% | 34% | 40% | 29% | 5.57% | – | 1.16% | 10% | – |
| CS(=O)(=O)c1ccc(N2CCNCC2)cc1 [B1] | 4.22% | 4.22% | 8.43% | 0% | 28% | 28% | 28% | 28% | 28% | 35% | – | 29% | 40% | – |
| O=C(Nc1ccccc1)C1CC1 [F6] | 12% | 12% | 10% | 14% | 41% | 41% | 41% | 40% | 42% | 0% | -2.69% | -1.55% | -4% | – |
| O=C(O)c1cccc(Nc2ncccn2)c1 [F5] | 10% | 10% | 9% | 11% | 50% | 50% | 50% | 58% | 42% | 12% | – | 11% | 13% | – |
| O=C1CCN(c2ccncc2)CC1 [G7] | 0.831% | 0.831% | -1.88% | 3.54% | 7% | 7% | 7% | 7.61% | 7% | 3.28% | – | -1.58% | 8% | – |
| Cc1ccc(-c2ccc(O)cc2)cc1 [D7] | -20% | – | -25% | -14% | 45% | 45% | 45% | 52% | 38% | 0% | -7.45% | 2.16% | -17% | 0% |
